Earlier results as cited in patent publication US20140370149A1, “METHODS FOR USING REBAUDIOSIDE C AS A FLAVOR ENHANCER” (International Flavors & Fragrances Inc., priority 2011, published 2014).

Conditions: sweetness relative to sucrose

C=C1C[C@@]23CC[C@H]4[C@@](C)(CCC[C@@]4(C)C(=O)O[C@@H]4O[C@H](CO)[C@@H](O)[C@H](O)[C@H]4O)[C@@H]2CC[C@]1(O[C@@H]1O[C@H](CO)[C@@H](O)[C@H](O)[C@H]1O[C@@H]1O[C@@H](C)[C@H](O)[C@@H](O)[C@H]1O)C3 [dulcoside A]
times sweeter than sucrose: 30 times
